Source: paper PMC10176470, “Engaging a Non-catalytic Cysteine Residue Drives Potent and Selective Inhibition of Caspase-6” (Journal of the American Chemical Society, 2023)

Key:
Format in all cases: cell-based
[1] = molecular target: proteins of HEK293T cells transiently overexpressing caspase-6 (Homo sapiens, UniProt Q6P2Q9); conditions: exp_ref Probe; protein PRPF8 (Q6P2Q9); analysis C6
[2] = molecular target: proteins of HEK293T cells transiently overexpressing caspase-6 (Homo sapiens, UniProt P61619); conditions: exp_ref Probe; protein SEC61A1 (P61619); analysis C6
[3] = molecular target: T1, proteins of HEK293T cells transiently overexpressing caspase-6 (Homo sapiens, UniProt P00505)
T1 sequence (P00505 30-430): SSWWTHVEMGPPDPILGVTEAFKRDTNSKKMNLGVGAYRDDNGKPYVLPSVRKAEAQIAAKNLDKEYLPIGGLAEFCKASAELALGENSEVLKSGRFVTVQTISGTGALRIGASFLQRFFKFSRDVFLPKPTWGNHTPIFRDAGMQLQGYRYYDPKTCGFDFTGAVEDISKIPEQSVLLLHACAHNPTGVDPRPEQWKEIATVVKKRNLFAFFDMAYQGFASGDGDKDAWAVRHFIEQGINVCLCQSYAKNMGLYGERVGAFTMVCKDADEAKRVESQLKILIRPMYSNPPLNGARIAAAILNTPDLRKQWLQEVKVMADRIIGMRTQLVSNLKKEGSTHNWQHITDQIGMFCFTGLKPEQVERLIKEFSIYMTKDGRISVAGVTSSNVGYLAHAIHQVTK

[4] = molecular target: proteins of HEK293T cells transiently overexpressing caspase-6 (Homo sapiens, UniProt Q8IWS0); conditions: exp_ref Probe; protein PHF6 (Q8IWS0); analysis C6
[5] = molecular target: proteins of HEK293T cells transiently overexpressing caspase-6 (Homo sapiens, UniProt P29692); conditions: exp_ref Probe; protein EEF1D (P29692); analysis C6
[6] = molecular target: proteins of HEK293T cells transiently overexpressing caspase-6 (Homo sapiens, UniProt P02768); conditions: Probe; protein ALB P02768
[7] = molecular target: proteins of HEK293T cells transiently overexpressing caspase-6 (Homo sapiens, UniProt P07237); conditions: protein P4HB (P07237)
Chain of proteins of HEK293T cells transiently overexpressing caspase-6 (Homo sapiens, UniProt P07237) (P07237 18-508): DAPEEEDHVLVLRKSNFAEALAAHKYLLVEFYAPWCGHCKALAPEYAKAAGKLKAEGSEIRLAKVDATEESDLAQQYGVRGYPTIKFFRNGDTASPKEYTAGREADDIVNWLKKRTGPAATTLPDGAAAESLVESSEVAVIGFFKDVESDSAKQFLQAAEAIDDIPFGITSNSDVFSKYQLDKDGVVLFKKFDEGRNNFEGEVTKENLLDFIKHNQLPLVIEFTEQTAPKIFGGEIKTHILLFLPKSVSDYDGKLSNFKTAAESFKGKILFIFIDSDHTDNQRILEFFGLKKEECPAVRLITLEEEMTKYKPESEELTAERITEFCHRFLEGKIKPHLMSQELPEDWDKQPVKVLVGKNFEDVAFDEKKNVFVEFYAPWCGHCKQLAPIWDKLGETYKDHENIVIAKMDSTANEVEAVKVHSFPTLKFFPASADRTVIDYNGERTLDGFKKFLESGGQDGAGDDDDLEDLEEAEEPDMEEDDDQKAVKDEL

[8] = molecular target: proteins of HEK293T cells transiently overexpressing caspase-6 (Homo sapiens, UniProt Q86VP6); conditions: exp_ref Probe; protein CAND1 (Q86VP6); analysis C6
Chain of proteins of HEK293T cells transiently overexpressing caspase-6 (Homo sapiens, UniProt Q86VP6) (Q86VP6 whole entry): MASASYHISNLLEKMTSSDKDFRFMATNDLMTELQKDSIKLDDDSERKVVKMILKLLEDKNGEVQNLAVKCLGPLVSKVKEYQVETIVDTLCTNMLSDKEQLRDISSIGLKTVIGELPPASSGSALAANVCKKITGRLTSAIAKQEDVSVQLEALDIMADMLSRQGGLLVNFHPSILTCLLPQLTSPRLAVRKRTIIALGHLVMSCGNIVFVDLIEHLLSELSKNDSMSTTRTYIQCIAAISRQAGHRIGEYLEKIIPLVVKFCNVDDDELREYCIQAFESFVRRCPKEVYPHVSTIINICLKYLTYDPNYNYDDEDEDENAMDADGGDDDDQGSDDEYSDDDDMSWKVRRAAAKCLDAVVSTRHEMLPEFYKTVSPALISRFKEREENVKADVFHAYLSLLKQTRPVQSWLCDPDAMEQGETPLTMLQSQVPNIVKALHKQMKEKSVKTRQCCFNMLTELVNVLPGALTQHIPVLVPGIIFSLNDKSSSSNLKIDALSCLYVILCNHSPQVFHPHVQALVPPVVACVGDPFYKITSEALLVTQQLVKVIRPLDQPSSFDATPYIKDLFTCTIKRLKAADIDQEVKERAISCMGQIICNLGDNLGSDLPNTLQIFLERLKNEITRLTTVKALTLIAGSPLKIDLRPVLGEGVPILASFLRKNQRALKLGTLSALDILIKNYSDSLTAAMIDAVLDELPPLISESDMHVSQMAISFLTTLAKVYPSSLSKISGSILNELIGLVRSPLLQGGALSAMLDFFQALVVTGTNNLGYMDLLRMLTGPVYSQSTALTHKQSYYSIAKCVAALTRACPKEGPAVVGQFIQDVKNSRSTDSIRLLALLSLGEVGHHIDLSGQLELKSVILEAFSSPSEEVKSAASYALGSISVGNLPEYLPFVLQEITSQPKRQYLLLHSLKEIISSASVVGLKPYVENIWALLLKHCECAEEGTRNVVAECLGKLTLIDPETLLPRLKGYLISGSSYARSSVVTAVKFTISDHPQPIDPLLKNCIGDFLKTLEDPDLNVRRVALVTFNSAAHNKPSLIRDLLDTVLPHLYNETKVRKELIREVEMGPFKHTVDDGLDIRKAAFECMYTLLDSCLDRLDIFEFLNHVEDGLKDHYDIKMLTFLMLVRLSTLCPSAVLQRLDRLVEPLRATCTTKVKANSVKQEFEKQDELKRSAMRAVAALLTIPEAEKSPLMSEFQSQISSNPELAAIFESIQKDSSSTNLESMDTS

[9] = molecular target: T2, proteins of HEK293T cells transiently overexpressing caspase-6 (Homo sapiens, UniProt P00390)
T2 sequence (P00390 44-522): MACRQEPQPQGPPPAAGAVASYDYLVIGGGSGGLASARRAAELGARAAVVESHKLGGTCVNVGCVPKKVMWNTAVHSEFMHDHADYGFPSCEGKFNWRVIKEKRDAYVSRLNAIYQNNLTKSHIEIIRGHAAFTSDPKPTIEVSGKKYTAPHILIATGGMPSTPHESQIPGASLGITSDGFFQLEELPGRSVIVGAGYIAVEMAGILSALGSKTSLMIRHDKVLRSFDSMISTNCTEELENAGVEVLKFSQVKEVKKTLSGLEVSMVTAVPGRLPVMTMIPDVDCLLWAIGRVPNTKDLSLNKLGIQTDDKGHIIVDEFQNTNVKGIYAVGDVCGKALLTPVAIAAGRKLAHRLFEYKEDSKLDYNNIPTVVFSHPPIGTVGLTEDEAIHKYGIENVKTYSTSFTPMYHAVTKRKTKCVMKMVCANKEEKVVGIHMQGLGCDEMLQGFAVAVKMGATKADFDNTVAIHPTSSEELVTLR

[10] = molecular target: proteins of HEK293T cells transiently overexpressing caspase-6 (Homo sapiens, UniProt Q02790); conditions: exp_ref Probe; protein FKBP4 (Q02790); analysis C6
[11] = molecular target: proteins of HEK293T cells transiently overexpressing caspase-6 (Homo sapiens, UniProt O14979); conditions: exp_ref Probe; protein HNRNPDL (O14979); analysis C6
Chain of proteins of HEK293T cells transiently overexpressing caspase-6 (Homo sapiens, UniProt O14979) (O14979 whole entry): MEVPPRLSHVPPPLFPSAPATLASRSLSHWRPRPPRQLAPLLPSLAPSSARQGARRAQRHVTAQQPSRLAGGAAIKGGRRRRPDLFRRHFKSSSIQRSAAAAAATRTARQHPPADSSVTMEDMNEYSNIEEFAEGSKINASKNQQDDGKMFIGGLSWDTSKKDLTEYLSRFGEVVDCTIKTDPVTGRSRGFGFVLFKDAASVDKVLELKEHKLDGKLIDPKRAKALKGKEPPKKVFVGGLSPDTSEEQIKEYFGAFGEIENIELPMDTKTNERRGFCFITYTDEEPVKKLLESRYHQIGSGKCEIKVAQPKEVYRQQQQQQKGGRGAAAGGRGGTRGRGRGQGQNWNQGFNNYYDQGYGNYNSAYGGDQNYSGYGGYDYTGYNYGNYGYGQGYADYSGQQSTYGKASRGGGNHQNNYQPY

[12] = molecular target: proteins of HEK293T cells transiently overexpressing caspase-6 (Homo sapiens, UniProt P04406); conditions: exp_ref Probe; protein GAPDH (P04406); analysis C6
[13] = molecular target: proteins of HEK293T cells transiently overexpressing caspase-6 (Homo sapiens, UniProt P27694); conditions: Probe; protein RPA1 P27694
Chain of proteins of HEK293T cells transiently overexpressing caspase-6 (Homo sapiens, UniProt P27694) (P27694 whole entry): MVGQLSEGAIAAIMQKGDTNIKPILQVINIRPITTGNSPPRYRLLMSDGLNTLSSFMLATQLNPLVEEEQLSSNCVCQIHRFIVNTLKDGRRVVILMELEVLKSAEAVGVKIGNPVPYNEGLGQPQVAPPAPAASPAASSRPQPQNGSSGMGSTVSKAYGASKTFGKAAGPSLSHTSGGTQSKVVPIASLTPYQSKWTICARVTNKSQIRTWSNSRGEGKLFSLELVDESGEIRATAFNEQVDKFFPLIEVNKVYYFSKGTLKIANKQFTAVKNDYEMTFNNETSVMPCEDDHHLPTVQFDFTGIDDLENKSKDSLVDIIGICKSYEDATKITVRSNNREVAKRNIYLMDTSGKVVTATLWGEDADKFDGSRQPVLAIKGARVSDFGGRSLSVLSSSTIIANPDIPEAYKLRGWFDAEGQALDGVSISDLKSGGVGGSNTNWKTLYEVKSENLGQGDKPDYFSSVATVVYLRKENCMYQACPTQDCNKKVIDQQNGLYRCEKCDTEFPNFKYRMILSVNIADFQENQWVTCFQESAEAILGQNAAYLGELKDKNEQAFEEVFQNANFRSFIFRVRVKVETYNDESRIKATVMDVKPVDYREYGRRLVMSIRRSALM

[14] = molecular target: proteins of HEK293T cells transiently overexpressing caspase-6 (Homo sapiens, UniProt Q99873); conditions: exp_ref Probe; protein PRMT1 (Q99873); analysis C6
Chain of proteins of HEK293T cells transiently overexpressing caspase-6 (Homo sapiens, UniProt Q99873) (Q99873 whole entry): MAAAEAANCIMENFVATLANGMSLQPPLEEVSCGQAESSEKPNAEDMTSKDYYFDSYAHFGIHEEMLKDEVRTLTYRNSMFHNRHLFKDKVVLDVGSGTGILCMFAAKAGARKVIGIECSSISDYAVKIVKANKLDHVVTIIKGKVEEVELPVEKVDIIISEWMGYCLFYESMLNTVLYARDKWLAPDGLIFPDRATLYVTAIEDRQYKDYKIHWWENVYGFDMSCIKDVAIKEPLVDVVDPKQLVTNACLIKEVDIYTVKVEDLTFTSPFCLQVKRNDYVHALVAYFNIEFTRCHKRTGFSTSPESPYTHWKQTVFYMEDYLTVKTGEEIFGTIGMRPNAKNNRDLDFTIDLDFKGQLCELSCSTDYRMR

[15] = molecular target: proteins of HEK293T cells transiently overexpressing caspase-6 (Homo sapiens, UniProt Q96F25); conditions: Probe; protein ALG14 Q96F25
[16] = molecular target: proteins of HEK293T cells transiently overexpressing caspase-6 (Homo sapiens, UniProt P35527); conditions: Probe; protein KRT9 P35527
[17] = molecular target: proteins of HEK293T cells transiently overexpressing caspase-6 (Homo sapiens, UniProt P49736); conditions: Probe; protein MCM2 P49736
Chain of proteins of HEK293T cells transiently overexpressing caspase-6 (Homo sapiens, UniProt P49736) (P49736 whole entry): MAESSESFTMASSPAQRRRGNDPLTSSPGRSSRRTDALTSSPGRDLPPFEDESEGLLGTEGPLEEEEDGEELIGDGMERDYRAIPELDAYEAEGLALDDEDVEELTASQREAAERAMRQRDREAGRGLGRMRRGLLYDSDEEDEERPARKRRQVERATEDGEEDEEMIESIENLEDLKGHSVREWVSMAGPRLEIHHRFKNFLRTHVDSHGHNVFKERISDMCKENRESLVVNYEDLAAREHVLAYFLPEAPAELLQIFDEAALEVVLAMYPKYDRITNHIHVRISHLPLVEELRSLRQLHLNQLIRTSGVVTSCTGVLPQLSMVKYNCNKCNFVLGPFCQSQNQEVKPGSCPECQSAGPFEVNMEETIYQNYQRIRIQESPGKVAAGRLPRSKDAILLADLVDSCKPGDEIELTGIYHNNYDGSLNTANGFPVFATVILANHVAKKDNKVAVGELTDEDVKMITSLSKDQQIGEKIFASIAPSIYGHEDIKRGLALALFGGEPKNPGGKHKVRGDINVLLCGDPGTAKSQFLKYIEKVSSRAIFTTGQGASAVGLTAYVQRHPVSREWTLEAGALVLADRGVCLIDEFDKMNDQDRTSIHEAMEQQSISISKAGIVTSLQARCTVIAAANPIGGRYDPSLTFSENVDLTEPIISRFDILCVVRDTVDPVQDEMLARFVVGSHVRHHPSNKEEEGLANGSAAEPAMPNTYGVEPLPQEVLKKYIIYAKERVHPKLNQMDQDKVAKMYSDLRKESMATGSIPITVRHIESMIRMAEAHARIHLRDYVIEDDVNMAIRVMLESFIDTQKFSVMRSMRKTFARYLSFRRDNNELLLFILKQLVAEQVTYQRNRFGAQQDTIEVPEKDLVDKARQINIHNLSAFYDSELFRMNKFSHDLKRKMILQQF

[18] = molecular target: proteins of HEK293T cells transiently overexpressing caspase-6 (Homo sapiens, UniProt O15355); conditions: exp_ref Probe; protein PPM1G (O15355); analysis C6
Chain of proteins of HEK293T cells transiently overexpressing caspase-6 (Homo sapiens, UniProt O15355) (O15355 whole entry): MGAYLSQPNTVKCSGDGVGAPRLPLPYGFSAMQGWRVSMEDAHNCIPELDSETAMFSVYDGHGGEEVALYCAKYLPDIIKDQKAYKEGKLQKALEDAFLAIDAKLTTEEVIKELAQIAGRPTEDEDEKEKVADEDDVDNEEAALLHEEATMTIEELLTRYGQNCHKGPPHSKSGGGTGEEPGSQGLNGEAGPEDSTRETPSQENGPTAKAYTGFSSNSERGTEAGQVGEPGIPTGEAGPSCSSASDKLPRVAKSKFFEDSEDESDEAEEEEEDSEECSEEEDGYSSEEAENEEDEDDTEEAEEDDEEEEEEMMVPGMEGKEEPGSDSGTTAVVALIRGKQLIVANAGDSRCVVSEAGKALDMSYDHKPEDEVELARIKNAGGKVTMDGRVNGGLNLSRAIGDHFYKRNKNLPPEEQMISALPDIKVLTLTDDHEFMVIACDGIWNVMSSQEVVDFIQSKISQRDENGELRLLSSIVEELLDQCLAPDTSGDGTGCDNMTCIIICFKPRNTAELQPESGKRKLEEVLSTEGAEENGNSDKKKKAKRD

[19] = molecular target: proteins of HEK293T cells transiently overexpressing caspase-6 (Homo sapiens, UniProt P41250); conditions: exp_ref Probe; protein GARS (P41250); analysis C6
[20] = molecular target: proteins of HEK293T cells transiently overexpressing caspase-6 (Homo sapiens, UniProt Q9UJU6); conditions: Probe; protein DBNL Q9UJU6
Chain of proteins of HEK293T cells transiently overexpressing caspase-6 (Homo sapiens, UniProt Q9UJU6) (Q9UJU6 whole entry): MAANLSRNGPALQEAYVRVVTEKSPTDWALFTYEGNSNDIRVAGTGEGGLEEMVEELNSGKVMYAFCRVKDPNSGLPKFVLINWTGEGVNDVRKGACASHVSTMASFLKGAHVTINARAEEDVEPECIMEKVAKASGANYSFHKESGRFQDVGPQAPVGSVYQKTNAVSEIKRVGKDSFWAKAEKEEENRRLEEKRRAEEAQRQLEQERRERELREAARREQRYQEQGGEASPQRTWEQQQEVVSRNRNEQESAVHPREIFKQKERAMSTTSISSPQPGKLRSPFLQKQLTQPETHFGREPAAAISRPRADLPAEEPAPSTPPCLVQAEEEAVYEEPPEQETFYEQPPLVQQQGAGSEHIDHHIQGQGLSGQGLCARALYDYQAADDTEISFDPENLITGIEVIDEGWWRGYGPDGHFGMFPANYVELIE

In the case of C#CCOc1ccc([C@@H]2C[C@@H](C(=O)Nc3ccc(OC(F)(F)F)cc3)CN(S(=O)(=O)C=C)C2)cc1 (relative stereo) [13-t], the enrich.exp.med [1] was 0.2125, the enrich.exp.med [2] was 0.5807 and the enrich.exp.med ([3]; Probe, protein GOT2 P00505) was -0.8861. It also gave an enrich.exp.med.lin ([3]; protein GOT2 (P00505)) of 0.5411, an enrich.exp.med.log2 ([3]; protein GOT2 (P00505)) of -0.8861 and an enrich.exp.med [4] of 1.065. The enrich.exp.med [5] was 0.2193, the enrich.exp.med [6] was -8.362 and the enrich.exp.med.lin [7] was 4.024. It also gave an enrich.exp.med.log2 [7] of 2.009, an enrich.exp.med ([7]; exp_ref Probe, analysis C6) of 2.009 and an enrich.exp.med [8] of 0.5563. For the same molecule, the enrich.exp.med ([9]; Probe, protein GSR P00390) was -1.323, the enrich.exp.med.lin ([9]; protein GSR (P00390)) was 0.3998 and the enrich.exp.med.log2 ([9]; protein GSR (P00390)) was -1.323. It also gave an enrich.exp.med [10] of 0.8165, an enrich.exp.med [11] of -0.3286 and an enrich.exp.med [12] of 0.4718. It also gave an enrich.exp.med [13] of -1.323, an enrich.exp.med [14] of -0.1105 and an enrich.exp.med [15] of -1.074. It also gave an enrich.exp.med [16] of -6.8322, an enrich.exp.med [17] of -1.091 and an enrich.exp.med [18] of -0.08092. For the same molecule, the enrich.exp.med [19] was 1.008 and the enrich.exp.med [20] was -0.5155.
